Values of other authors, collected in patent US20050250828A1 (Entire Interest, priority 2004, published 2005).

Key:
[1] = oral administration

Structure (SMILES) | absorption when administered orally [1] | solubility in methanol (methanol) | solubility in water (water)
CCOc1nc2cccc(C(=O)O)c2n1Cc1ccc(-c2ccccc2-c2nnn[nH]2)cc1 [Candesartan, 2-ethoxy-1-[[2′-(1H-tetrazol-5-yl)biphenyl-4-yl]methyl]-1H-benzimidazole-7-carboxylic acid] | poorly absorbed |  | 
CCOc1nc2cccc(C(=O)OC(C)OC(=O)OC3CCCCC3)c2n1Cc1ccc(-c2ccccc2-c2nnn[nH]2)cc1 (racemic) [candesartan cilexetil, (±)-1-[[(cyclohexyloxy)carbonyl]oxy]ethyl-2-ethoxy-1-[[2′-(1H-tetrazol-5-yl)[1,1′biphenyl]-4-yl]methyl]-1H-benzimidazole-7-carboxylate] |  | sparingly soluble | sparingly soluble
